Where two headings read alike, the source gives them in different places.
Tests used:
Type in all cases: cell-based
uninfected MT2 cells = assay: Compound cytotoxicity, XTT-based colorimetric assay; settings: uninfected MT2 cells, day 4, XTT
Summary of the method: (§1)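 Run under the antiviral-assay protocol but without virus. Viability was read on day 4 and CC50 values were derived from the readout.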

recombinant NL4-3 virus = assay: HIV cell culture assay (antiviral activity, luciferase readout in MT-2 cells)
Summary of the method: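 MT-2 cells infected for 4-5 days with NL4-3 reference virus carrying Renilla luciferase in place of part of nef, in presence of serial compound dilutions. Luciferase activity read with live-cell substrate. EC50 derived from median effect equation, slope parameter m.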

[1] = Compound cytotoxicity, XTT-based colorimetric assay; settings: human; uninfected MT2 cells, day 4, XTT; read-out: CC50
Summary of the method: as §1

[2] = Human immunodeficiency virus 1, NL43, MT2

Row | Structure (SMILES) | CC50 (uninfected MT2 cells) | EC50 (recombinant NL4-3 virus; MT-2 cells infected for 4-5 days with recombinant NL4-3 virus carrying Renilla luciferase, luciferase activity, read-out: EC50) | CC50 at 4 days [1] | EC50 (recombinant NL4-3 virus; [2])
1 | C[C@@H]1CN(c2ccc3c(=O)n(-c4ccc(Cl)c5c(NS(C)(=O)=O)nn(CC(F)F)c45)c([C@H](Cc4cc(F)cc(F)c4)NC(=O)Cn4nc(C(F)F)c5c4C(F)(F)[C@@H]4C[C@H]54)nc3c2)C[C@H](C)O1 [Example 8, N—((S)-1-((3P)-3-(4-chloro-1-(2,2-difluoroethyl)-3-(methylsulfonamido)-1H-indazol-7-yl)-7-((2S,6R)-2,6-dimethylmorpholino)-4-oxo-3,4-dihydroquinazolin-2-yl)-2-(3,5-difluorophenyl)ethyl)-2-((3bS,4aR)-3-(difluoromethyl)-5,5-difluoro-3b,4,4a,5-tetrahydro-1H-cyclopropa[3,4]cyclopenta[1,2-c]pyrazol-1-yl)acetamide] | > 500 nM | 0.093 nM |  | 
2 | Cn1nc(NS(C)(=O)=O)c2c(Cl)ccc(-n3c([C@H](Cc4cc(F)cc(F)c4)NC(=O)Cn4nc(C(F)F)c5c4C(F)(F)[C@@H]4C[C@H]54)nc4cc(N5CCCCC5)ccc4c3=O)c21 (atropisomer, axis not shown; (P)) [Example 14, N—((S)-1-((3P)-3-(4-chloro-1-methyl-3-(methylsulfonamido)-1H-indazol-7-yl)-4-oxo-7-(piperidin-1-yl)-3,4-dihydroquinazolin-2-yl)-2-(3,5-difluorophenyl)ethyl)-2-((3bS,4aR)-3-(difluoromethyl)-5,5-difluoro-3b,4,4a,5-tetrahydro-1H-cyclopropa[3,4]cyclopenta[1,2-c]pyrazol-1-yl)acetamide] |  |  | > 1000 nM | 0.242 nM
3 | COC1CCN(c2ccc3c(=O)n(-c4ccc(Cl)c5c(NS(C)(=O)=O)nn(C)c45)c([C@H](Cc4cc(F)cc(F)c4)NC(=O)Cn4nc(C(F)F)c5c4C(F)(F)[C@@H]4C[C@H]54)nc3c2)CC1 (atropisomer, axis not shown; (P)) [Example 28, N—((S)-1-((3P)-3-(4-chloro-1-methyl-3-(methylsulfonamido)-1H-indazol-7-yl)-7-(4-methoxypiperidin-1-yl)-4-oxo-3,4-dihydroquinazolin-2-yl)-2-(3,5-difluorophenyl)ethyl)-2-((3bS,4aR)-3-(difluoromethyl)-5,5-difluoro-3b,4,4a,5-tetrahydro-1H-cyclopropa[3,4]cyclopenta[1,2-c]pyrazol-1-yl)acetamide] |  |  | > 500 nM | 0.12 nM
4 | Cn1nc(NS(C)(=O)=O)c2c(Cl)ccc(-n3c([C@H](Cc4cc(F)cc(F)c4)NC(=O)Cn4nc(C(F)F)c5c4C(F)(F)[C@@H]4C[C@H]54)nc4cc(NCC(F)F)ccc4c3=O)c21 (atropisomer, axis not shown; (P)) [Example 41, N—((S)-1-((3P)-3-(4-chloro-1-methyl-3-(methylsulfonamido)-1H-indazol-7-yl)-7-((2,2-difluoroethyl)amino)-4-oxo-3,4-dihydroquinazolin-2-yl)-2-(3,5-difluorophenyl)ethyl)-2-((3bS,4aR)-3-(difluoromethyl)-5,5-difluoro-3b,4,4a,5-tetrahydro-1H-cyclopropa[3,4]cyclopenta[1,2-c]pyrazol-1-yl)acetamide] |  |  | > 1000 nM | 0.174 nM
5 | C[C@@H]1CN(c2ccc3c(=O)n(-c4ccc(Cl)c5c(NS(=O)(=O)C6CC6)nn(CC(F)F)c45)c([C@H](Cc4cc(F)cc(F)c4)NC(=O)Cn4nc(C(F)F)cc4C(F)F)nc3c2)C[C@H](C)O1 (atropisomer, axis not shown; (P)) [Example 38, 2-(3,5-bis(difluoromethyl)-1H-pyrazol-1-yl)-N—((S)-1-((3P)-3-(4-chloro-3-(cyclopropanesulfonamido)-1-(2,2-difluoroethyl)-1H-indazol-7-yl)-7-((2S,6R)-2,6-dimethylmorpholino)-4-oxo-3,4-dihydroquinazolin-2-yl)-2-(3,5-difluorophenyl)ethyl)acetamide] |  |  | > 1000 nM | 1.22 nM
6 | C[C@@H]1CN(c2ccc3c(=O)n(-c4ccc(Cl)c5c(NS(C)(=O)=O)nn(C)c45)c([C@H](Cc4cc(F)cc(F)c4)NC(=O)Cn4nc(C(F)F)c5c4C(F)(F)[C@@H]4C[C@H]54)nc3c2)C[C@H](C)N1C (atropisomer, axis not shown; (P)) [Example 16, N—((S)-1-((3P)-3-(4-chloro-1-methyl-3-(methylsulfonamido)-1H-indazol-7-yl)-4-oxo-7-((3S,5R)-3,4,5-trimethylpiperazin-1-yl)-3,4-dihydroquinazolin-2-yl)-2-(3,5-difluorophenyl)ethyl)-2-((3bS,4aR)-3-(difluoromethyl)-5,5-difluoro-3b,4,4a,5-tetrahydro-1H-cyclopropa[3,4]cyclopenta[1,2-c]pyrazol-1-yl)acetamide] |  |  | > 1000 nM | 0.08 nM
7 | C[C@@H]1CN(c2ccc3c(=O)n(-c4ccc(Cl)c5c(NS(C)(=O)=O)nn(C)c45)c([C@H](Cc4cc(F)cc(F)c4)NC(=O)Cc4cn(C5CC5)c5ccccc45)nc3c2)C[C@H](C)O1 (atropisomer, axis not shown; (P)) [Example 53, N—((S)-1-((3P)-3-(4-chloro-1-methyl-3-(methylsulfonamido)-1H-indazol-7-yl)-7-((2S,6R)-2,6-dimethylmorpholino)-4-oxo-3,4-dihydroquinazolin-2-yl)-2-(3,5-difluorophenyl)ethyl)-2-(1-cyclopropyl-1H-indol-3-yl)acetamide] |  |  | > 500 nM | 0.81 nM

Source: US20210395262A1, “INHIBITORS OF HUMAN IMMUNODEFICIENCY VIRUS REPLICATION” (ViiV HEALTHCARE UK (NO.5) LIMITED, priority 2018, published 2021)
